# Results as given in patent publication US10138469B2, “Synthetic peptide and use thereof” (Toagosei Co., Ltd., priority 2014, dated 2018).
# Assays:
# [1] = system: CCD1079SK cells; experiment: Production of SIRIUS cells: cluster formation and cell morphology of fibroblasts cultured with peptide (phase-contrast microscopy); type: cell-based, human; conditions: for cell morphology in the culture: days 1 to 6
# Excerpt: SIRIUS cells were produced using the sample 1 obtained in Working Example 1. CCD1079SK cells (ATCC (registered trademark) CRL-2097), which are a fibroblast cell culture line derived from human skin tissue, were used as the sample cells. The details of the tests are as follows.
# The CCD1079SK cells, which had been stored frozen, were inoculated to six culture dishes with a diameter of 60 mm (60 mm dishes) to provide a cell density of 3×10^5 cells/well. Specifically, the thawed CCD1079SK cells were first suspended in ordinary Dulbecco's modified Eagle's medium (DMEM medium) to produce a cell suspension having a cell density of 1.5×10^5 cells/mL and 2 mL of this cell suspension was introduced into the 60 mm dish. This DMEM medium contained 10% FBS, 100 units/mL of penicillin, and 100 μg/mL of streptomycin in ordinary DMEM (Wako Pure Chemical Industries, Ltd., Cat. No. 043-30085).
# The CCD1079SK cells inoculated into the 60 mm dish were precultured for several hours (approximately 6 hours) in an incubator under conditions of 5% CO2 and 37° C.
# After the preculture for several hours, the CCD1079SK cells were subjected to a main culture at one of the culture conditions indicated for examples 1 to 6 in Table 1. The specific culture conditions are given in the following. […]
# The culture conditions according to example 5 are as follows: the stock solution of sample 1 is added, in an amount that provides a peptide concentration in the medium of 20 μM, to the DMEM medium (in the 60 mm dish) on which the CCD1079SK cells are being cultured, and culture is carried out under a temperature condition of 13° C. […]
# Other than the culture temperature and the presence/absence of peptide addition, the same culture conditions were used in all of examples 1 to 6. Thus, in all of examples 1 to 6, culture was carried out in a 5% CO2 atmosphere using a DMEM medium with the same composition (same as that used in the preculture). In addition, in all of examples 1 to 6, culture exchange and peptide addition (addition of PBS (−) in the peptide-free groups) were carried out every two days after the start of the main culture.
# Observation of the cell morphology using a phase-contrast microscope was carried out in each example on the 1st, 2nd, 3rd, 4th, 5th, 6th, 7th, 9th, 13th, 21st, 27th, and 34th days after the start of the main culture (cell culture in the presence of peptide). Among the images in FIG. 2, the micrographs given for example 3 are micrographs (images) showing cell aggregates (clusters) that were rarely identified when tests were independently repeated a plurality of times using the same conditions as in example 3.
# [2] = system: CCD1079SK cells; experiment: Evaluation of the state of undifferentiation of SIRIUS cells by cytoimmunostaining of undifferentiated marker genes; type: cell-based, human; conditions: sample 1 20 μM, 30° C., 3 days; fluorescent immunostaining
# Method: The state of undifferentiation of the SIRIUS cells (cells forming clusters) produced using the sample 1 obtained in example 1 was evaluated by cytoimmunostaining (fluorescent immunostaining) of the state of expression of undifferentiated marker genes (endogenous Oct3/4, Nanog, Sox2, TRA1-81, SSEA-3, and ALP), i.e., the state of expression of protein that is a gene product of these genes (this protein is also referred to as “undifferentiated marker protein” below). The details of the evaluation test are as follows.
# The SIRIUS cells according to this working example were produced by culture under the same conditions as the culture conditions given in example 1 of Working Example 2 with the following exceptions: a cell culture chamber having 1 well per slide (culture area of 19 mm×44 mm) (also referred to as a slide chamber) was used as the culture chamber, 1.5×10^5 cells/well was used for the number of cells per well; and 1 mL was used for the amount of medium per well. The status of differentiation of the SIRIUS cells was evaluated by cytoimmunostaining as follows on the 3rd day after the start of the main culture (culture in the presence of peptide).
# Fixing, a permeabilization treatment, and a blocking treatment were first carried out on the cells in each test group. Specifically, the medium was removed from the culture chamber (slide chamber) in each test group once the culture for 3 days in the presence of peptide had been completed and the cells in each slide chamber were washed with cold PBS. PBS containing 4 volume % paraformaldehyde (4% paraformaldehyde solution) was then added to the slide chamber and the cells were fixed by standing for 15 minutes on ice. After the prescribed time had elapsed, the 4% paraformaldehyde solution was removed and the cells in the slide chamber were washed with cold PBS.
# PBS containing 0.25 volume % Triton (registered trademark) X-100 (0.25% Triton (registered trademark) X-100 solution) was then added to each slide chamber and a permeabilization treatment was carried out on the cell membrane by standing for 15 minutes on ice. After the prescribed time had elapsed, the 0.25% Triton (registered trademark) X-100 solution was removed and the cells in the slide chamber were washed with cold PBS.
# PBS containing 1% BSA (1% BSA-containing PBS) was added to each slide chamber and a blocking treatment was carried out for 1 hour at room temperature. After the prescribed time had elapsed, the 1% BSA-containing PBS was removed and the cells in the slide chamber were washed with cold PBS.
# The primary antibodies (primary antibody dilution)—obtained by the dilution at the prescribed ratio (dilution ratio shown in Table 2) with 0.1% BSA/PBS of primary antibody that recognized the particular undifferentiated marker protein—were respectively added to the slide chambers and standing was carried out overnight (approximately 16 to 18 hours) at 4° C. After the prescribed time had elapsed, the primary antibody dilution was removed and washing with cold PBS was performed.
# Table 2 gives the undifferentiation markers used to evaluate the status of expression in this working example, the details for the primary antibody (product name, product number, immunized animal, antibody class) used to recognize the particular undifferentiated marker protein, and the dilution ratio for the primary antibody. Of the primary antibodies given in Table 2, the anti-Oct3/4 antibody was from Santa Cruz Biotechnology, Inc. and the anti-Nanog antibody, anti-Sox2 antibody, anti-TRA1-81 antibody, anti-SSEA-3 antibody, and anti-ALP antibody were from Abcam plc.
# Secondary antibody (secondary antibody dilution)—obtained by the 1000× dilution with 0.1% BSA/PBS of a secondary antibody that detected the particular primary antibody—was added to the slide chamber and standing was carried out in the dark for 2 hours at room temperature. After the prescribed time had elapsed, the secondary antibody dilution was removed and washing with cold PBS was performed. […]
# [3] = example 2: sample 1 20 μM, 37° C.
sequence,measurement,setting,value
CKSKSRRSC [sample 1],time to formation of aggregates (clusters) of aggregated cells after the start of the main culture,"[1]; example 1: sample 1 20 μM, 30° C., 60 mm dish",≤ 3 days
same,probability that at least 1 cluster was formed in the 60 mm dish within the 3rd day after the start of culture,"[1]; example 1 conditions: 20 μM, 30° C., 26 times in 27 tests",at least 95%
same,"number (frequency) of clusters formed per one 60 mm dish, average","[1]; example 1 conditions: 20 μM, 30° C., within the 3rd day",3
same,formation of cell aggregates (clusters) within 3 days after the start of the main culture,[1]; [3],"did not form, or their formation frequency was very low"
same,persistence of the rarely observed clusters,[1]; [3],disappeared by the 34th day
same,cell morphology in the culture,"[1]; example 5: sample 1 20 μM, 13° C.",very close to a dead cell morphology
same,cell morphology in the culture,"[1]; example 6: sample 1 20 μM, 22° C.",very close to a dead cell morphology
same,expression of undifferentiated marker gene ALP by cells constituting the clusters,[2],strongly expressed
same,expression of undifferentiated marker gene Nanog by cells constituting the clusters,[2],strongly expressed
same,expression of undifferentiated marker gene Oct3/4 by cells constituting the clusters,[2],strongly expressed
same,expression of undifferentiated marker gene SSEA-3 by cells constituting the clusters,[2],strongly expressed
same,expression of undifferentiated marker gene Sox2 by cells constituting the clusters,[2],strongly expressed
same,expression of undifferentiated marker gene TRA1-81 by cells constituting the clusters,[2],strongly expressed
